For orientation: IC50 means the concentration that gives 50% inhibition.

Among the data in patent US20250282746A1, “HALOGEN-SUBSTITUTED ISOINDOLINE COMPOUND AND USE THEREOF” (CHENGDU FENDI PHARMACEUTICAL CO., LTD., priority 2022, published 2025) are IC50 and inhibition values, retold here.

The test system of assay [1] is MV-4-11 cells. The assay is described as follows: Antiproliferative activity against MV-4-11 cells (CellTiter-Glo, 72 h). The format is cell-based. The conditions noted are these: Homo sapiens, MV4-11; MV-4-11 cells, 72 h; read-out: Antiproliferative activity IC50. As to the method:
MV411 cells in the logarithmic growth phase were diluted in a medium (RPMI+10% FBS) and plated at 5,000 cells/well in 96-well whole black plates (WHB) with 50 μL/well. After plating, the plates were incubated in an incubator at 5% CO2 and 37° C. for 24 h before the compounds were added. The compounds were prepared into a 10 mM stock solution in DMSO and diluted in a culture medium to the desired concentrations (a final DMSO concentration of 0.2%). […] The plates were incubated at 5% CO2 and 37° C. for 72 h. After the incubation was complete, the plates were equilibrated at room temperature for 30 min. CellTiter-Glo® Reagent (Promega G7573) was added at 100 μL/well. The plates were shaken for 12 min on a microplate shaker. The luminescence value was measured at room temperature by the GloMax navigator (Promega GM2010).
Background: Cellular ATP, detected with luciferase, serves as a proxy for viable cell number.

Assay [2] addresses T1, GSPT1 protein (Homo sapiens, UniProt P15170).
T1 construct: The whole cell lysate was prepared using a RIPA lysis buffer; endogenous in cells; host or cells: NB-4 cells
The assay can be described thus: Degradation of GSPT1 protein in NB-4 cells (Western blot). The conditions noted are these: NB-4 cells, compound 1 μM, 6 h; read-out: GSPT1 degradation. The format is cell-based. As to the method: 150 μL of DMSO and the compounds (1 μM) were added, and the mixture was incubated in an incubator at 5% CO2 and 37° C. for 6 h. The cells were centrifuged, and the culture medium was discarded. PBS was added for washing and then discarded. The whole cell lysate was prepared using a RIPA lysis buffer containing a protease inhibitor cocktail and a phosphatase inhibitor, and incubated on ice for 30 min. The mixture was centrifuged, and the cell debris was discarded. The whole cell lysate supernatant was collected and transferred to a fresh EP tube. Samples were prepared using a loading buffer after a BCA protein assay. The samples were incubated in a metal bath at 100° C. for 10 min.
The samples were electrophoretically separated from proteins on a 4-20% precast gel (SDS-PAGE gel), transferred to a PVDF membrane, blocked with 5% NFDM/TBST for 1 h at room temperature, co-incubated overnight at 4° C. with the primary antibody, and co-incubated for 2 h at room temperature with the secondary antibody on the next day. The signals were detected on the […]™ imaging system.
In general terms: Immunoblotting shows a protein as a band on a membrane.

T1 sequence (P15170 whole entry): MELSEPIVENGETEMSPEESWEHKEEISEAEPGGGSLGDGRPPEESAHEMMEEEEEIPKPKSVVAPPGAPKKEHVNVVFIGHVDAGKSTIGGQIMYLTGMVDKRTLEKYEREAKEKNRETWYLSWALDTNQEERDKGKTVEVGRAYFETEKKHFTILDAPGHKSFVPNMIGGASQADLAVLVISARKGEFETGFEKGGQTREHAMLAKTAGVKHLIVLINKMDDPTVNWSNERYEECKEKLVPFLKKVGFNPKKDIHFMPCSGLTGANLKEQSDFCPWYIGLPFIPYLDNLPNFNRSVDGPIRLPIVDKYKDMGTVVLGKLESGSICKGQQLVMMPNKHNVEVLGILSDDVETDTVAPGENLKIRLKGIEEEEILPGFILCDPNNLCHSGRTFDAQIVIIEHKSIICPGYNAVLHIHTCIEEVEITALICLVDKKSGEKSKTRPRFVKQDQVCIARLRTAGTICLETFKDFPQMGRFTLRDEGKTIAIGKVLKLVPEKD

For the molecule `O=C1CCC(N2Cc3c(ccc(CNC(=O)c4ccccc4)c3F)C2=O)C(=O)N1` (stereo not drawn) [FDAB-81], the IC50 in assay [1] was above 1000 nM. Moreover, the inhibition at 1 µM in assay [2] was below 25%.
As for `O=C1CCC(N2Cc3c(ccc(CNC(=O)c4ccc5cc6ccccc6cc5c4)c3F)C2=O)C(=O)N1` (stereo not drawn) [FDAB-87], the IC50 in assay [1] is below 1 nM. Further, the inhibition at 1 µM in assay [2] was below 25%.
Consider `O=C1CCC(N2Cc3cc(CNC(=O)c4ccccc4)c(F)cc3C2=O)C(=O)N1` (stereo not drawn) [FDAB-25], for which the IC50 in assay [1] was above 1000 nM. The inhibition at 1 µM in assay [2] is below 25%.
On to `O=C1CCC(N2Cc3cc(CNC(=O)C4CC4)c(F)cc3C2=O)C(=O)N1` (stereo not drawn) [FDAB-40], for which the IC50 in assay [1] is above 1000 nM. The inhibition at 1 µM in assay [2] was below 25%.
As to `O=C1CCC(N2Cc3c(ccc(CNC(=O)c4ccc(Cl)cc4F)c3F)C2=O)C(=O)N1` (stereo not drawn) [FDAB-117], the IC50 in assay [1] fell in the range of 1 to 10 nM. Moreover, the inhibition at 1 µM in assay [2] is above 80%.
On the same counts, the results for `Cc1ccc(C(=O)NCc2cc3c(cc2F)C(=O)N(C2CCC(=O)NC2=O)C3)cc1` (stereo not drawn) [FDAB-51] are 10 to 100 nM and above 80%.
The corresponding values for `O=C(C#Cc1ccccn1)NCc1ccc2c(c1F)CN(C1CCC(=O)NC1=O)C2=O` (stereo not drawn) [FDAB-148] are 1 to 10 nM and above 80%.
On the same counts, the results for `O=C1CCC(N2Cc3c(ccc(CNC(=O)c4cc5cc(Cl)ccc5o4)c3F)C2=O)C(=O)N1` (stereo not drawn) [FDAB-47] are 1 to 10 nM and above 80%.
Take `Cc1ccc(C(=O)NCc2ccc3c(c2F)CN(C2CCC(=O)NC2=O)C3=O)cc1N` (stereo not drawn) [FDAB-112]: the IC50 in assay [1] lay within 10 to 100 nM. The inhibition at 1 µM in assay [2] is above 80%.
`C#Cc1ccc(C(=O)NCc2ccc3c(c2F)CN(C2CCC(=O)NC2=O)C3=O)cc1` (stereo not drawn) [FDAB-96]: the IC50 in assay [1] was in the range of 1 to 10 nM. In addition, the inhibition at 1 µM in assay [2] was above 80%.
On the same counts, the results for `CS(=O)(=O)c1ccc(C(=O)NCc2ccc3c(c2F)CN(C2CCC(=O)NC2=O)C3=O)c(N)c1` (stereo not drawn) [FDAB-114] are above 1000 nM and below 25%.
On the same counts, the results for `O=C(Cc1ccc(Cl)cc1Cl)NCc1ccc2c(c1F)CN(C1CCC(=O)NC1=O)C2=O` (stereo not drawn) [FDAB-131] are below 1 nM and above 80%.
The corresponding values for `Cn1ccc2ccc(C(=O)NCc3cc4c(cc3F)C(=O)N(C3CCC(=O)NC3=O)C4)cc21` (stereo not drawn) [FDAB-59] are above 1000 nM and above 80%.
On to `O=C1CCC(N2Cc3cc(CNC(=O)C4CCCC4)c(F)cc3C2=O)C(=O)N1` (stereo not drawn) [FDAB-41], for which the IC50 in assay [1] is above 1000 nM. Moreover, the inhibition at 1 µM in assay [2] was below 25%.
The corresponding values for `CCC#CC(=O)NCc1cc2c(cc1F)C(=O)N(C1CCC(=O)NC1=O)C2` (stereo not drawn) [FDAB-63] are above 1000 nM and below 25%.
The corresponding values for `COc1ccc(C(=O)NCc2ccc3c(c2F)CN(C2CCC(=O)NC2=O)C3=O)cc1` (stereo not drawn) [FDAB-85] are 10 to 100 nM and above 80%.
Turning to `N#Cc1cc2c(cc1Cl)C(=O)N(C1CCC(=O)NC1=O)C2` (stereo not drawn) [FDAB-13], the IC50 in assay [1] is above 1000 nM. Also, the inhibition at 1 µM in assay [2] was below 25%.
In the case of `O=C1CCC(N2Cc3cc(CNC(=O)c4ccc(Cl)c(O)c4)c(F)cc3C2=O)C(=O)N1` (stereo not drawn) [FDAB-55], the IC50 in assay [1] fell in the range of 1 to 10 nM. In addition, the inhibition at 1 µM in assay [2] was above 80%.
The corresponding values for `O=C1CCC(N2Cc3c(ccc(CNC(=O)c4ccc(F)cc4)c3Cl)C2=O)C(=O)N1` (stereo not drawn) [FDAB-77] are above 1000 nM and below 25%.
In the case of `NCc1cc(F)c2c(c1)CN(C1CCC(=O)NC1=O)C2=O` (stereo not drawn) [FDAB-9], the IC50 in assay [1] was above 1000 nM. The inhibition at 1 µM in assay [2] was below 25%.
The corresponding values for `O=C1CCC(N2Cc3c(ccc(CNC(=O)c4ccc5c(c4)CC5)c3F)C2=O)C(=O)N1` (stereo not drawn) [FDAB-98] are 1 to 10 nM and above 80%.
`CC(C)(C)OC(=O)NCc1ccc2c(c1F)CN(C1CCC(=O)NC1=O)C2=O` (stereo not drawn) [FDAB-2]: the IC50 in assay [1] was above 1000 nM. The inhibition at 1 µM in assay [2] was below 25%.
The corresponding values for `Cc1ccc(C(=O)NCc2ccc3c(c2F)CN(C2CCC(=O)NC2=O)C3=O)c(O)c1` (stereo not drawn) [FDAB-109] are 1 to 10 nM and above 80%.
The corresponding values for `CC(C)(C)OC(=O)NCc1cc(F)c2c(c1)CN(C1CCC(=O)NC1=O)C2=O` (stereo not drawn) [FDAB-8] are above 1000 nM and below 25%.
